pEC50, pIC50: −log10 of the molar value.
Legend:
CD40 [1] = molecular target: T1, CD40 (Homo sapiens, UniProt P25942); assay: FACS binding of human-rabbit chimeric anti-CD40 antibodies to Raji cells
Method: Raji cells are of a tumor cell line that overexpresses human CD40. 2E5 Raji cells were inoculated onto a 96-well plate. 100 μL of a test antibody was added, with the highest final concentration of 100 nM. The antibody was 5-fold diluted to 8 concentrations. The plate was incubated at 4° C. for 1 h. The plate was washed once with a washing buffer, and an AF647-conjugated anti-human IgG antibody (Jackson Immunoresearch Laborotories, Cat. #205-609-088) was added at a dilution ratio of 1:500. The plate was incubated at 4° C. for 30 min. The plate was washed once with the washing buffer, and fluorescence intensity was measured using a flow cytometer. The binding EC50 values of the anti-CD40 antibodies for CD40 were calculated. The anti-CD40 antagonistic antibody CFZ533 (i.e., iscalimab, Nova) was used as a positive control, and the heavy and light chain variable region sequences were derived from sequence 5 and sequence 2 of U.S. Pat. No. 8,277,810B, respectively.

[2] = tested on: human CD40 transgenic mice; assay: Mouse T cell-dependent humoral immune response (TDAR) model, anti-KLH specific IgG; assay type: in vivo; details: 0.3 mpk BIW ip, hCD40 transgenic mice (IgG1 control 1 mg/kg)
Method: On day 0 of the experiment, one of the mice in each group was subjected to blood collection followed by intraperitoneal injection. On day 1, each mouse was intraperitoneally injected with 50 μg of KLH (KLH:complete Freund's adjuvant (CFA)=1:1 emulsified immune complex) for immunization. On day 15 of the experiment, each mouse was intraperitoneally injected with 50 μg of KLH (KLH:incomplete Freund's adjuvant (IFA)=1:1 emulsified immune complex) for a second immunization. Each group was intraperitoneally injected twice a week, and blood samples of about 150 μL were collected from the orbital venous plexus on days 7, 14, 21, and 28. Whole blood was left to stand at room temperature for 1-4 h and centrifuged at 7000 rpm at 4° C. for 10 min to separate serum, and the serum was stored at −80° C. for later use.
Mouse serum was separated weekly and assayed by ELISA for the anti-KLH specific IgG level.

[3] = tested on: human CD40 transgenic mice; assay: Mouse skin graft rejection model (antibodies, tacrolimus combination); assay type: in vivo
Text: Male Balb/c mice, 6 weeks old, were purchased from the Laboratory Animal Management Department, Shanghai Institute of Planned Parenthood Research. Housing environment: SPF; certification number: 20180006023393.
On day-2 of the experiment, the mice were intraperitoneally injected with tacrolimus FK506 or CD40 antagonistic antibodies. On day 0 of the experiment, donor Balb/c mice and C57BL6/J mice were anesthetized with 4% chloral hydrate. The tails of the donor mice were removed, and full circles of skin, 1 cm in length, were isolated from the tails. The hair on the acceptor mice's back was removed, and an incision was made along the skin layer. An equal area of skin was removed while preserving the back fat and connective tissue. The donor skin was placed on the acceptor mice's incision site, and the incision was closed with glue. The mice were then placed back in cages to recover.
The mice were dosed according to the administration regimens in Table 16. After 7 days of recovery, the mouse skin survival was observed daily and rejection scores were recorded.

[4] = mouse, in vivo, ip, 10 mg/kg
Method: After arrival, the animals were acclimatized for 7 days and randomly grouped. On day 0 of the experiment, each group of mice was intraperitoneally injected with the anti-CD40 antibody at 10 mg/kg. 100-150 μL of blood samples were collected at 15 min, 4 h, and 8 h after administration, and on days 1, 2, 4, 7, 10, and 14 after administration, anticoagulated with 10 μL of EDTA-K2 (0.1 M), and stored on ice. Mouse plasma was assayed by ELISA for antibody concentration at different time points. The assay is specifically as follows: A goat anti-human IgG Fc antibody (Rockland, Cat. #609-101-017) was diluted to 2.5 μg/mL with PBS and added to a 96-well plate at 50 μL/well, and the plate was incubated overnight at 4° C. After three washes with a washing buffer, 50 μL of blocking solution was added to each well, and the plate was incubated at 37° C. for 1 h. The mouse plasma and the standard curve of the test antibody were added, and the plate was incubated at 37° C. for 2 h. After three washes with the washing buffer, anti-hlgG Fab-HRP (Sigma, Cat. #A0293, 1:10,000) was added at 50 μL/well, and the plate was incubated at room temperature for 1 h. The plate was washed three times with the washing buffer. TMB was added at 100 μL/well, and the mixtures were left to react in the dark for 5 min. 0.16 M sulfuric acid was added at 100 μL/well. The OD value at 450 nm was measured with an Envision microplate reader, and the concentrations of CD40 antagonistic antibodies were calculated.

CD40 [5] = molecular target: T1, CD40; assay: Reporter gene cell activity of chimeric anti-CD40 antibodies (HEK-Blue CD40L cells, CD40L-induced SEAP); assay type: cell-based; set-up: host or cells: HEK-Blue CD40L cells; details: CD40L-stimulated HEK-Blue CD40L cells
Method: HEK-Blue CD40L cells were purchased from Invivogen (Cat. #hkb-cd40). The cells were stably transfected with the human CD40 gene and the NF-kB-mediated SEAP genome. The activation level of the CD40 signaling pathway can be characterized by detecting the secreted SEAP in the supernatant using QUANTI-Blue, the substrate of SEAP. In this experiment, the in vitro antagonist activity of anti-CD40 antibodies was assessed according to IC50 by detecting the activation of HEK-Blue CD40L cells by CD40L. HEK-Blue CD40L cells were cultured in a DMEM medium containing 10% FBS, 100 μg/mL Zeocin, and 30 μg/mL Blasticidin, and passaged 2-3 times in a week at a ratio of 1:5 or 1:10. During passaging, the medium was pipetted off, and the cell layer was rinsed with 5 mL of 0.25% pancreatin. Then the pancreatin was pipetted off, the cells were digested in an incubator for 3-5 min, and then a fresh medium was added to resuspend cells. 100 μL of cell suspension was added to a 96-well cell culture plate at a density of 5×10^5 cells/mL. The medium was DMEM containing 10% FBS, 100 μg/mL Zeocin, and 30 μg/mL Blasticidin. Only 100 μL of sterile water was added to the peripheral wells of the 96-well plate. […] The absorbance at 630 nm was measured with a microplate reader (Thermo MultiSkanFc), and IC50 values were calculated and used to assess the in vitro cell activity of the anti-CD40 antibodies.

T1 sequence (P25942 21-277): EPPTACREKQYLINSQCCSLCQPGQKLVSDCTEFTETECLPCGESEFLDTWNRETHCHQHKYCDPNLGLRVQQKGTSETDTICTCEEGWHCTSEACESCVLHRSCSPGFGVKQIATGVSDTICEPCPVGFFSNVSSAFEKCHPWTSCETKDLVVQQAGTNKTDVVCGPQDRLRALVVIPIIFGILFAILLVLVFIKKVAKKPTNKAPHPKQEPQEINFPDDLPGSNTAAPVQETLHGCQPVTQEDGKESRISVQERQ

CFZ533: anti-CD40 antagonistic antibody CFZ533 (i.e., iscalimab), positive control, variable regions from U.S. Pat. No. 8,277,810B
pEC50 (CD40 [1]): 8.62 | anti-KLH specific IgG, Day 7 [2]: 0.04 ± 0.01 | anti-KLH specific IgG, Day 14 [2]: 30.9 ± 10.8 | anti-KLH specific IgG, Day 21 [2]: 845 ± 423 | anti-KLH specific IgG, Day 28 [2]: 3043 ± 1600 | Day-15 skin graft survival rate (%) ([3]; 3 mpk ip): 0% | Skin graft score, 8 days ([3]; 3 mpk, score 3 (best) to 0 (rejected)): 2.7 | Skin graft score, 10 days ([3]; 3 mpk, score 3 to 0): 2.1 | Skin graft score, 15 days ([3]; 3 mpk, score 3 to 0): 0 | Skin graft score, 20 days ([3]; 3 mpk, score 3 to 0): 0 | Day-15 skin graft survival rate (%) ([3]; 10 mpk ip): 0% | Skin graft score, 8 days ([3]; 10 mpk, score 3 to 0): 2.9 | Skin graft score, 10 days ([3]; 10 mpk, score 3 to 0): 2.1 | Skin graft score, 15 days ([3]; 10 mpk, score 3 to 0): 0 | Skin graft score, 20 days ([3]; 10 mpk, score 3 to 0): 0 | AUC(0-d14)((h) * (mg/L)) [4]: 12655 (h) * (mg/L) | C max [4]: 75.95 µg/mL | T1/2 [4]: 214.8 h | pIC50 (CD40 [5]): 9.57

Source: patent US20260207759A1, “COMPOSITION OF CD40-BINDING MOLECULE AND PHARMACEUTICAL USE THEREOF” (SUZHOU SUNCADIA BIOPHARMACEUTICALS CO., LTD., priority 2022, published 2026)
